In publication PMC6261295 (Journal of chromatography. A, 2018):
Where a name gives a salt, the structure may show the parent alone.

Key:
[1] = molecular target: T1, Neuraminidase (from Clostridium perfringens, Type V) immobilized on magnetic beads (NA-MBs) (Clostridium perfringens, UniProt A0A0H2YQR1); assay: biochemical; details: for inhibition at 50 µM: 0.05 h, read-out: Inhibitory ratio (%)
[2] = molecular target: T1, Neuraminidase (from Clostridium perfringens, Type V) immobilized on magnetic beads (NA-MBs); format: biochemical; details: 40 μM MUNANA, 37 °C, 3 min
[3] = molecular target: T1, Neuraminidase (from Clostridium perfringens, Type V) immobilized on magnetic beads (NA-MBs); format: binding; details: 5.0 mg/mL ethyl acetate extract fraction of Flos Lonicerae, 37 °C, 1 h
NA [4] = details: read-out: IC50, literature reported value; cited from earlier work
NA [5] = details: cited from earlier work; for binder / non-binder for NA: known active/inactive compounds for NA
[6] = molecular target: T1, Neuraminidase (from Clostridium perfringens, Type V) immobilized on magnetic beads (NA-MBs); format: biochemical

T1 sequence (A0A0H2YQR1 42-694 limits assumed): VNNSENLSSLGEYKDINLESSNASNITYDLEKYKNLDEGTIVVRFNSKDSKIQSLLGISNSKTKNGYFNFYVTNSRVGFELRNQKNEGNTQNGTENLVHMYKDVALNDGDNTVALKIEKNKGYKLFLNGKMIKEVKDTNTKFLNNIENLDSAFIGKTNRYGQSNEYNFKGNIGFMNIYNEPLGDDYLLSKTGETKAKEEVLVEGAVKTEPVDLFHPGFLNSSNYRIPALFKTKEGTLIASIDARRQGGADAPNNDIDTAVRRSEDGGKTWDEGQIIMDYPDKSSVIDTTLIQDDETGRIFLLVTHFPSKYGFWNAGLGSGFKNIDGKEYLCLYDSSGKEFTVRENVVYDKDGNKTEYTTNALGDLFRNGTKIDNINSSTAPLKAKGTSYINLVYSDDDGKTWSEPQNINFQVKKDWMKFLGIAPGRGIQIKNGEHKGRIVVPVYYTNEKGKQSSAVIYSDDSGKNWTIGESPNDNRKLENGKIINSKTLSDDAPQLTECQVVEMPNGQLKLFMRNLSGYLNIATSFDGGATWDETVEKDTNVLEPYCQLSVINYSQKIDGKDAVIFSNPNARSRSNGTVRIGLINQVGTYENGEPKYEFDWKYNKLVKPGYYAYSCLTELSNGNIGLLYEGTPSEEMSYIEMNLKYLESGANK

Cc1c[nH]c(=O)[nH]c1=O [Thymine]
inhibition at 50 µM [1]: < 1%

O=C(/C=C/c1ccc(O)c(O)c1)OC1CC(O)(C(=O)O)CC(OC(=O)/C=C/c2ccc(O)c(O)c2)C1O (centres unmarked) [3,5-di-O-caffeoylquinic acid]
IC50 [2]: 61.2 ± 1.5 µM | Retention on NA-MBs in ligand fishing [3]: retained until the final elution steps

CCOC(=O)C1=C[C@@H](OC(CC)CC)[C@H](NC(C)=O)[C@@H](N)C1 [Oseltamivir]
inhibition at 50 µM [1]: 74.9 ± 3.5% | IC50 (NA [4]): […] | binder / non-binder for NA (NA [5]): known binder

Nc1cc[nH]c(=O)n1 [Cytosine]
inhibition at 50 µM [1]: < 1%

O=c1cc(-c2ccc(O)c(O)c2)oc2cc(O)cc(O)c12 [luteolin]
Retention on NA-MBs in ligand fishing [3]: retained until the final elution steps

CC(=O)N[C@H]1[C@H]([C@H](O)[C@H](O)CO)O[C@@](Oc2ccc3c(C)cc(=O)oc3c2)(C(=O)O)C[C@@H]1O [MUNANA, 2′-(4-methylumbelliferyl)-α-D-N-acetylneuraminic acid sodium salt hydrate]
Km [6]: 46.5 ± 3.68 µM | Km (NA [5]; substrate on NA-immobilized capillary microreactor): 137 ± 10.8 µM

O[C@H]1[C@H]2c3cc4c(cc3CN3CCC(=C[C@@H]1O)[C@H]23)OCO4 [Lycorine]
inhibition at 50 µM [1]: < 1% | binder / non-binder for NA (NA [5]): reported non-binders

Nc1nc2c(ncn2[C@@H]2O[C@H](CO)[C@@H](O)[C@H]2O)c(=O)[nH]1 [Guanosine]
inhibition at 50 µM [1]: < 1%

O=c1c(O)c(-c2ccc(O)cc2)oc2cc(O)cc(O)c12 [Kaempferol]
inhibition at 50 µM [1]: 51.2 ± 6.1%

O=c1c(O[C@@H]2O[C@H](CO)[C@H](O)[C@H](O)[C@H]2O)c(-c2ccc(O)c(O)c2)oc2cc(O)cc(O)c12 [Hyperoside]
inhibition at 50 µM [1]: 32.3 ± 2.7%

COc1cc(-c2oc3cc(O)cc(O)c3c(=O)c2O)ccc1O [Isorhamnetin]
inhibition at 50 µM [1]: 46.8 ± 5.8%

O=C1CCC[C@@H]2[C@H]3CCC[N+]4([O-])CCC[C@@H](CN12)[C@@H]34 (some centres unmarked) [Oxymatrine]
inhibition at 50 µM [1]: < 1%

COc1ccc(-c2oc3cc(O)cc(O)c3c(=O)c2O)cc1 [Kaempferide]
inhibition at 50 µM [1]: 43.6 ± 4.9%

O=C1CCC[C@@H]2[C@H]3CCC[N@+]4([O-])CCC[C@@H](CN12)[C@@H]34 [Ammothamnine]
Inhibitory ratio (%) ([1]; 50 μM tested compound, 40 μM MUNANA, 5 mg NA-MBs, 37 °C, 3 min, 3% DMSO): < 1%

COc1ccc2c3c1O[C@H]1C[C@@H](O)C=C[C@@]31CCN(C)C2 [Galantamine, reference compound]
inhibition at 50 µM [1]: < 1%

O=C1CCC[C@@H]2[C@H]3CCCN4CCC[C@@H](CN12)[C@@H]34 [matrine]
binder / non-binder for NA (NA [5]): reported non-binders

O=c1cc(-c2ccc(O)c(O)c2)oc2cc(O[C@@H]3O[C@H](CO)[C@@H](O)[C@H](O)[C@H]3O)cc(O)c12 [luteolin-7-O-β-D-glucoside]
IC50 [2]: 76.5 ± 3.9 µM | Retention on NA-MBs in ligand fishing [3]: retained until the final elution steps

O=C(/C=C/c1ccc(O)c(O)c1)OC1CC(O)(C(=O)O)CC(O)C1OC(=O)/C=C/c1ccc(O)c(O)c1 (centres unmarked) [3,4-di-O-caffeoylquinic acid]
IC50 [2]: 68.3 ± 3.1 µM | Retention on NA-MBs in ligand fishing [3]: retained until the final elution steps

O=c1c(O)c(-c2ccc(O)c(O)c2)oc2cc(O)cc(O)c12 [Quercetin]
inhibition at 50 µM [1]: 48.1 ± 3.4%
